These compounds were tested against MTP (Homo sapiens, UniProt P55157) (assay: MTP assay (triglyceride transfer from donor to acceptor vesicles)). Conditions: MTP activity, percent triglyceride transfer from donor to acceptor vesicles, 37° C.
Format: biochemical
Method: MTP activity was measured using an assay similar to one described by J. R. Wetterau and D. B. Zilversmit in Chemistry and Physics of Lipids, 38, 205-222 (1985). To prepare the donor and acceptor vesicles, the appropriate lipids in chloroform were put into a glass test tube and dried under a stream of nitrogen. A buffer containing 15 mM Tris-HCl pH 7.5, 1 mM EDTA, 40 mM NaCl, 0.02% NaN3 (assay buffer) was added to the dried lipid. The mixture was vortexed briefly and the lipids were then allowed to hydrate for 20 minutes on ice. Vesicles were then prepared by bath sonication (Branson 2200) at room temperature for maximum 15 minutes. Butylated hydroxytoluene was included in all vesicle preparations at a concentration of 0.1%. The lipid transfer assay mixture contained donor vesicles (40 nmol phosphatidylcholine, 7.5 mol % of cardiolipin and 0.25 mol % glycerol tri [1-^14C]-oleate), acceptor vesicles (240 nmol phosphatidylcholine) and 5 mg BSA in a total volume of 675 μl in a 1.5 ml microcentrifuge tube. Test compounds were added dissolved in DMSO (0.13% final concentration). After 5 minutes of pre-incubation at 37° C., the reaction was started by the addition of MTP in 100 μl dialysis buffer. The reaction was stopped by the addition of 400 μl DEAE-52 cellulose pre-equilibrated in 15 mM Tris-HCl pH 7.5, 1 mM EDTA, 0.02% NaN3 (1:1, vol/vol). The mixture was agitated for 4 minutes and centrifuged for 2 minutes at maximum speed in an Eppendorf centrifuge (4° C.) to pellet the DEAE-52-bound donor vesicles. An aliquot of the supernatant containing the acceptor liposomes was counted and the [^14C]-counts were used to calculate the percent triglyceride transfer from donor to acceptor vesicles.

MTP, sequence (P55157 19-894, species assumed): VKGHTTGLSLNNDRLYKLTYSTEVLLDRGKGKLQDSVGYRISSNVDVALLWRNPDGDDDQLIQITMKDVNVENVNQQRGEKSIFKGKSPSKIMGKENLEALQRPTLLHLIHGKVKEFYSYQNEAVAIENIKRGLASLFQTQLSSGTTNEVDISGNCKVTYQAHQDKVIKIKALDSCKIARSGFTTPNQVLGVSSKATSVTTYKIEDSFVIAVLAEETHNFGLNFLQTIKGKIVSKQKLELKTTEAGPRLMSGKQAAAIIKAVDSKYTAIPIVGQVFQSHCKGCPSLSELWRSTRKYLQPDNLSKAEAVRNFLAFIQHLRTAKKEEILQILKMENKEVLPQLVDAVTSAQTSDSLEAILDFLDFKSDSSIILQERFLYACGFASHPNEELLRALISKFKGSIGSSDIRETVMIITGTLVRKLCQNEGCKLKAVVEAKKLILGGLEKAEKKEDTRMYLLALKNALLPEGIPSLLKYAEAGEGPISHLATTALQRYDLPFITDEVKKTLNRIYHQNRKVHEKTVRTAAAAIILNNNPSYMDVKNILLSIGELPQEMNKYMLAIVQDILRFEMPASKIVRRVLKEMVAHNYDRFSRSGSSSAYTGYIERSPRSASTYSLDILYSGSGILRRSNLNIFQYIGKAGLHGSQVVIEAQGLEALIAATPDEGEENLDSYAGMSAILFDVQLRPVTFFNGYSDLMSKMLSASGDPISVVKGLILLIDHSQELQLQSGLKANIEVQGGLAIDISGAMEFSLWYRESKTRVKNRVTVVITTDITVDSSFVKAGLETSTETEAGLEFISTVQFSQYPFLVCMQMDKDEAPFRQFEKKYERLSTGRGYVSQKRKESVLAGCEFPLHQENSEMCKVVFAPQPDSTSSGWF
MTP, sequence (P07237 18-508 partner, species assumed): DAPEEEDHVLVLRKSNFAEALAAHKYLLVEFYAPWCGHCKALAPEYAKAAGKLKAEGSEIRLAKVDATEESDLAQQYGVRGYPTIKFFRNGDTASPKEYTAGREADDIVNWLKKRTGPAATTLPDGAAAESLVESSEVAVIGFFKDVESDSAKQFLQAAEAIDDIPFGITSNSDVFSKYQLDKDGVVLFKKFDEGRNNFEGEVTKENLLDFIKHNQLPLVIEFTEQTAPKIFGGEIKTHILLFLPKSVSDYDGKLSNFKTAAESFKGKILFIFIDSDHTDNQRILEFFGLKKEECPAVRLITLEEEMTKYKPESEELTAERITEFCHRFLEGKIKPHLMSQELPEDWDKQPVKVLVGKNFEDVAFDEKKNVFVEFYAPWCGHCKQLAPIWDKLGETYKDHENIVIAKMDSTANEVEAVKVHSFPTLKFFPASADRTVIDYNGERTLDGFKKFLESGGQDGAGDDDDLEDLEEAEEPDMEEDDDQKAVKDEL

IC50 [nM]	SMILES
1790	CCOC(=O)CC(C)NC(=O)[C@@]1(c2ccccc2)CC[C@H](C(=O)N2CCC(NC(=O)c3cccn(C)c3=O)CC2)c2ccccc21 (mixture of isomers) [Co. No. 223]
689	CCNC(=O)[C@]1(c2ccccc2)CC[C@H](C(=O)N2CCC(NC(=O)c3ccccc3OC)CC2)c2ccccc21 [Co. No. 9]
778	C=CCOC(=O)[C@]1(c2ccccc2)CC[C@H](C(=O)N2CCC(NC(=O)c3ccccc3)CC2)c2ccccc21 [Co. No. 12]
277	CCNC(=O)[C@]1(c2ccccc2)CC[C@@H](CN2CCC(NC(=O)c3ccccc3)CC2)c2ccccc21 [Co. No. 17]
3340	CCOC(=O)[C@]1(c2ccccc2)CC[C@H](C(=O)N2CCN(C(=O)c3ccccc3)CC2)c2ccccc21 [Co. No. 29]
601	CCOC(=O)[C@]1(c2ccccc2)CC[C@H](C(=O)N2CCN(C(=O)c3ccccc3OC)CC2)c2ccccc21 [Co. No. 30]
348	CCOC(=O)[C@]1(c2ccccc2)CC[C@H](C(=O)N2CCN(C(=O)c3ccccc3-c3ccc(C(F)(F)F)cc3)CC2)c2ccccc21 [Co. No. 31]
7830	COc1ccccc1C(=O)NC1CCN(C(=O)[C@H]2CC[C@](C(N)=O)(c3ccccc3)c3ccccc32)CC1 [Co. No. 37]
3820	CCNC(=O)[C@]1(c2ccccc2)CC[C@@H](C(=O)N2CCC(NC(=O)c3ccccc3OC)CC2)c2ccccc21 [Co. No. 38]
627	COC(=O)[C@]1(c2ccccc2)CC[C@@H](C(=O)N2CCC(NC(=O)c3cc(S(N)(=O)=O)ccc3OC)CC2)c2ccccc21 [Co. No. 52]
2.51	COC(=O)[C@]1(c2ccccc2)CC[C@@H](C(=O)N2CCC(NC(=O)c3ccccc3OC)CC2)c2ccccc21 [Co. No. 60]
493	CCOC(=O)[C@H](CO)NC(=O)[C@@]1(c2ccccc2)CC[C@H](C(=O)N2CCC(NC(=O)c3ccccc3OC)CC2)c2ccccc21 [Co. No. 71]
326	CCOC(=O)[C@@H]1CCCN1C(=O)[C@@]1(c2ccccc2)CC[C@H](C(=O)N2CCC(NC(=O)c3ccccc3OC)CC2)c2ccccc21 [Co. No. 76]
217	CCOC(=O)[C@H]1CCCN1C(=O)[C@@]1(c2ccccc2)CC[C@H](C(=O)N2CCC(NC(=O)c3ccccc3OC)CC2)c2ccccc21 [Co. No. 77]
3820	COC(=O)[C@@H]1C[C@@H](O)CN1C(=O)[C@@]1(c2ccccc2)CC[C@H](C(=O)N2CCC(NC(=O)c3ccccc3OC)CC2)c2ccccc21 [Co. No. 78]
11.7	COc1ccccc1C(=O)NC1CCN(C(=O)[C@H]2CC[C@@](C(=O)N(C)CC(=O)OC(C)(C)C)(c3ccccc3)c3ccccc32)CC1 [Co. No. 87]
> 100	COc1ccccc1C(=O)NC1CCN(C(=O)[C@H]2CC[C@@](C(=O)N3C[C@H](OC(C)(C)C)C[C@H]3C(=O)OC(C)(C)C)(c3ccccc3)c3ccccc32)CC1 [Co. No. 91]
> 10000	COc1ccccc1C(=O)NC1CCN(C(=O)[C@H]2CC[C@@](C(=O)N3C[C@H](O)C[C@H]3C(=O)O)(c3ccccc3)c3ccccc32)CC1 [Co. No. 92]
9.33	COc1ccccc1C(=O)NC1CCN(C(=O)[C@H]2CC[C@@](C(=O)N[C@H](C)C(=O)OC(C)(C)C)(c3ccccc3)c3ccccc32)CC1 [Co. No. 93]
210	COc1ccccc1C(=O)NC1CCN(C(=O)[C@H]2CC[C@@](C(=O)N3CCCC3C(=O)OC(C)(C)C)(c3ccccc3)c3ccccc32)CC1 (some centres unmarked) [Co. No. 94]
140	COc1ccccc1C(=O)NC1CCN(C(=O)[C@H]2CC[C@@](C(=O)N[C@@H](C(=O)OC(C)(C)C)c3ccccc3)(c3ccccc3)c3ccccc32)CC1 [Co. No. 95]
4120	COc1ccccc1C(=O)NC1CCN(C(=O)[C@H]2CC[C@@](C(=O)N[C@H](C)C(=O)O)(c3ccccc3)c3ccccc32)CC1 [Co. No. 97]
4750	COc1ccccc1C(=O)NC1CCN(C(=O)[C@H]2CC[C@@](C(=O)N3CCC[C@@H]3C(=O)O)(c3ccccc3)c3ccccc32)CC1 [Co. No. 98]
> 10000	COc1ccccc1C(=O)NC1CCN(C(=O)[C@H]2CC[C@@](C(=O)N[C@@H](C(=O)O)c3ccccc3)(c3ccccc3)c3ccccc32)CC1 [Co. No. 99]
6050	COc1ccccc1C(=O)NC1CCN(C(=O)[C@H]2CC[C@@](C(=O)N[C@H](Cc3ccccc3)C(=O)O)(c3ccccc3)c3ccccc32)CC1 [Co. No. 100]

IC50 [nM]	SMILES
4.2	COc1ccccc1C(=O)NC1CCN(C(=O)[C@H]2CC[C@@](C(=O)N[C@@H](C)C(=O)OC(C)(C)C)(c3ccccc3)c3ccccc32)CC1 [Co. No. 101]
219	COc1ccccc1C(=O)NC1CCN(C(=O)[C@H]2CC[C@@](C(=O)N[C@H](C(=O)OC(C)(C)C)c3ccccc3)(c3ccccc3)c3ccccc32)CC1 [Co. No. 111]
163	COc1ccccc1C(=O)NC1CCN(C(=O)[C@H]2CC[C@@](C(=O)N[C@@H](Cc3ccc(O)cc3)C(=O)OC(C)(C)C)(c3ccccc3)c3ccccc32)CC1 [Co. No. 113]
203	COc1ccccc1C(=O)NC1CCN(C(=O)[C@H]2CC[C@@](C(=O)N[C@@H](Cc3c[nH]c4ccccc34)C(=O)OC(C)(C)C)(c3ccccc3)c3ccccc32)CC1 [Co. No. 114]
301	COc1ccccc1C(=O)NC1CCN(C(=O)[C@H]2CC[C@@](C(=O)N[C@@H](CC(N)=O)C(=O)OC(C)(C)C)(c3ccccc3)c3ccccc32)CC1 [Co. No. 115]
8410	COc1ccccc1C(=O)NC1CCN(C(=O)[C@H]2CC[C@@](C(=O)N[C@@H](C)C(=O)O)(c3ccccc3)c3ccccc32)CC1 [Co. No. 116]
4750	COc1ccccc1C(=O)NC1CCN(C(=O)[C@H]2CC[C@@](C(=O)NC(C(=O)O)C(=O)O)(c3ccccc3)c3ccccc32)CC1 [Co. No. 117]
887	COc1ccccc1C(=O)NC1CCN(C(=O)[C@H]2CC[C@@](C(=O)N[C@@H](C(=O)O)C(C)C)(c3ccccc3)c3ccccc32)CC1 [Co. No. 118]
> 10000	COc1ccccc1C(=O)NC1CCN(C(=O)[C@H]2CC[C@@](C(=O)N[C@@H](CC(C)C)C(=O)O)(c3ccccc3)c3ccccc32)CC1 [Co. No. 119]
> 10000	COc1ccccc1C(=O)NC1CCN(C(=O)[C@H]2CC[C@@](C(=O)N[C@@H](COC(C)(C)C)C(=O)O)(c3ccccc3)c3ccccc32)CC1 [Co. No. 120]
4750	COc1ccccc1C(=O)NC1CCN(C(=O)[C@H]2CC[C@@](C(=O)N[C@@H](CCC(=O)O)C(=O)O)(c3ccccc3)c3ccccc32)CC1 [Co. No. 122]
3820	COc1ccccc1C(=O)NC1CCN(C(=O)[C@H]2CC[C@@](C(=O)N3CCC[C@H]3C(=O)O)(c3ccccc3)c3ccccc32)CC1 [Co. No. 123]
> 10000	COc1ccccc1C(=O)NC1CCN(C(=O)[C@H]2CC[C@@](C(=O)N[C@H](C(=O)O)c3ccccc3)(c3ccccc3)c3ccccc32)CC1 [Co. No. 124]
8610	COc1ccccc1C(=O)NC1CCN(C(=O)[C@H]2CC[C@@](C(=O)N[C@@H](Cc3ccccc3)C(=O)O)(c3ccccc3)c3ccccc32)CC1 [Co. No. 125]
6190	COc1ccccc1C(=O)NC1CCN(C(=O)[C@H]2CC[C@@](C(=O)N[C@@H](Cc3ccc(O)cc3)C(=O)O)(c3ccccc3)c3ccccc32)CC1 [Co. No. 126]
> 10000	COc1ccccc1C(=O)NC1CCN(C(=O)[C@H]2CC[C@@](C(=O)N[C@@H](Cc3c[nH]c4ccccc34)C(=O)O)(c3ccccc3)c3ccccc32)CC1 [Co. No. 127]
> 10000	COc1ccccc1C(=O)NC1CCN(C(=O)[C@H]2CC[C@@](C(=O)N[C@@H](CC(N)=O)C(=O)O)(c3ccccc3)c3ccccc32)CC1 [Co. No. 128]
262	COC(=O)[C@H](CCCCNC(C)=O)NC(=O)[C@@]1(c2ccccc2)CC[C@H](C(=O)N2CCC(NC(=O)c3ccccc3OC)CC2)c2ccccc21 [Co. No. 130]
45.6	CCOC(=O)[C@H](CCCCNC(C)=O)NC(=O)[C@@]1(c2ccccc2)CC[C@H](C(=O)N2CCC(NC(=O)c3ccccc3OC)CC2)c2ccccc21 [Co. No. 131]
355	COc1ccccc1C(=O)NC1CCN(C(=O)[C@H]2CC[C@@](C(=O)N[C@@H](CCCCN)C(=O)O)(c3ccccc3)c3ccccc32)CC1 [Co. No. 132]
796	CCOC(=O)CNC(=O)[C@@]1(c2ccccc2)CC[C@H](C(=O)N2CCC(NC(=O)c3cccn(C)c3=O)CC2)c2ccccc21 [Co. No. 133]
1340	CCOC(=O)[C@H](C)NC(=O)[C@@]1(c2ccccc2)CC[C@H](C(=O)N2CCC(NC(=O)c3cccn(C)c3=O)CC2)c2ccccc21 [Co. No. 135]
1090	CCOC(=O)[C@@H](C)NC(=O)[C@@]1(c2ccccc2)CC[C@H](C(=O)N2CCC(NC(=O)c3cccn(C)c3=O)CC2)c2ccccc21 [Co. No. 136]
474	CCOC(=O)CN(C)C(=O)[C@@]1(c2ccccc2)CC[C@H](C(=O)N2CCC(NC(=O)c3cccn(C)c3=O)CC2)c2ccccc21 [Co. No. 137]
826	CCOC(=O)[C@@H](NC(=O)[C@@]1(c2ccccc2)CC[C@H](C(=O)N2CCC(NC(=O)c3cccn(C)c3=O)CC2)c2ccccc21)C(C)C [Co. No. 139]

Reference: US8114880B2, “Piperidine or piperazine substituted tetrahydro-naphthalene-1-carboxylic acid MTP inhibiting compounds” (Janssen Pharmaceutica N.V., priority 2006, dated 2012)
